{"source": "paper PMC7645366", "about": "(EMBO Molecular Medicine, 2020)", "key": {"LLO [1]": {"molecular_target": "T1, LLO (Listeria monocytogenes serovar 1/2a, UniProt P13128)", "T1 sequence (P13128 25-529)": "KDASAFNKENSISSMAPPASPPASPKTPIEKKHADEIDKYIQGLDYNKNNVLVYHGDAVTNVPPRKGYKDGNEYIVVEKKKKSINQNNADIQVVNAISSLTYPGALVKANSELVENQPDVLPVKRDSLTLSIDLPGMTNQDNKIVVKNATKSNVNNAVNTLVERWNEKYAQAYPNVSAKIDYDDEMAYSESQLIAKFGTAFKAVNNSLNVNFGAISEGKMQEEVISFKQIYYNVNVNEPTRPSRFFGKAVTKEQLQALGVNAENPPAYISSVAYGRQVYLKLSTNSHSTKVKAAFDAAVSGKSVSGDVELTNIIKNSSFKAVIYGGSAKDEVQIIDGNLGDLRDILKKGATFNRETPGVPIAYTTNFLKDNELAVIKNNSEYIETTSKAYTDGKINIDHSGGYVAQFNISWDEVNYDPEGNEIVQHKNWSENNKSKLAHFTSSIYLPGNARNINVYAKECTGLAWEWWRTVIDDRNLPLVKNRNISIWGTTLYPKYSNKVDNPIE", "assay": "ELISA, binding of plate-bound MRC-1 peptides to LLO", "conditions": "plate-bound peptide, LLO 0–0.5 μM", "protocol": "Briefly, 96‐well flat‐bottomed plates (Sigma, UK) were coated overnight with 10 μM of MRC‐1 peptides in coating buffer (15 mM Na2CO3, 35 mM NaHCO3, pH 9.6). Wells were blocked with 200 μl of 10% (v/v) FBS in PBS for 2 h and then washed three times with PBS, 0.05% (v/v) Tween 20 (Sigma). 50 μl of purified PLY, LLO, and SLO (0–1 μM) in PBS was added and incubated at 37°C for 1 h. 1 μM BSA was added to control wells. Wells were washed with PBS and bound proteins were detected by adding 100 μl of mouse α‐PLY (1:1,000), mouse α‐SLO (1:400), and rabbit α‐LLO (1:1,500) (Abcam), respectively, in blocking buffer. Plates were incubated with 100 μl of secondary anti‐rabbit/anti‐mouse IgG HRP (1:2,000) dilution in blocking buffer. Bound antibodies were detected by adding 100 μl of tetramethylbenzidine substrate solution for 30 min. Phosphoric acid (1 M) was used as the stop solution and absorbance was measured at 450 nm."}, "PLY [2]": {"molecular_target": "T2, PLY (Streptococcus pneumoniae serotype 4, UniProt P0C2J9)", "T2 sequence (P0C2J9 whole entry, looked up)": "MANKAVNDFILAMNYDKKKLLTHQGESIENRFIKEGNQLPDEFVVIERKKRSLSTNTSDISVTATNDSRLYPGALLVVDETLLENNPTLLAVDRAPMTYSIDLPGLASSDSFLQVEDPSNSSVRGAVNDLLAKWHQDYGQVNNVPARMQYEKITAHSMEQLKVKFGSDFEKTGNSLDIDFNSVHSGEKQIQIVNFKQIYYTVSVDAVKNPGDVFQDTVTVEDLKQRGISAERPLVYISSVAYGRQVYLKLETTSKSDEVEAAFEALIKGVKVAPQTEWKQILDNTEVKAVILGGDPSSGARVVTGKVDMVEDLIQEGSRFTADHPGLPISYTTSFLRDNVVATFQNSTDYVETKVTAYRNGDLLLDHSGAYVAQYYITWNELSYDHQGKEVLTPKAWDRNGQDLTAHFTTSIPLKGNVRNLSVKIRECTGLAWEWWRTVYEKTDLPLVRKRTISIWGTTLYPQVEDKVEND", "type": "cell-based"}, "S. pneumoniae strain T4": {"test_system": "S. pneumoniae strain T4", "assay": "Hemolytic activity of whole bacteria, S. pneumoniae T4", "type": "cell-based, Streptococcus pneumoniae", "conditions": "100 μM peptide", "method": "(§1) Human blood from anonymous healthy donors (obtained from Karolinska University Hospital) was diluted 1:100 in PBS with 0.5 mM DTT and mixed 1:1 with twofold serial dilutions of 10^8 CFUs of bacteria or 1 μg/ml purified bacterial toxins in 96‐well plates. The MRC‐1 peptides were serially diluted 10‐fold (1–1,000 μM) in PBS and added to the wells prior to addition of blood. The blood was co‐incubated with whole bacteria or purified toxins at 37°C for 1 h, and after 50 min, 0.1% triton X‐100 was added to the positive control wells. Cells were spun down at 400 g for 15 min and the absorbance of the supernatants was measured at 540 nm in a microplate reader. Percentage of lysis compared to the toxin alone was calculated. All samples were assayed in triplicates."}, "PLY [3]": {"molecular_target": "T2, PLY", "type": "cell-based", "remark": "listed apart in the source"}, "[4]": {"test_system": "PLY‐producing pneumococcal strain T4", "assay": "Binding of FITC-labeled peptides to pneumococci, fluorescence microscopy", "design": "species or system Streptococcus pneumoniae"}, "PLY [5]": {"molecular_target": "T2, PLY", "type": "cell-based", "remark": "listed apart in the source"}, "PLY [6]": {"molecular_target": "T2, PLY", "type": "cell-based", "remark": "listed apart in the source"}, "PLY [7]": {"molecular_target": "T2, PLY", "type": "cell-based", "remark": "listed apart in the source"}, "PLY [8]": {"molecular_target": "T2, PLY", "type": "cell-based", "remark": "listed apart in the source"}, "S. pneumoniae T4 [9]": {"test_system": "S. pneumoniae T4", "assay": "Bacterial invasion assay, 3D lung epithelial models, CFU after gentamicin", "type": "cell-based, Streptococcus pneumoniae", "conditions": "for Mean Colonies at 100X dil, bacterial invasion of lung epithelium models / % entry bacteria= (bacteria uptaken/Input)*100: T4, MOI 10, 2h, 100 μM peptide"}, "S. pyogenes type M1T1": {"test_system": "S. pyogenes type M1T1", "assay": "Co-localization of intracellular S. pyogenes with MRC-1 and LC3B in DCs", "type": "cell-based, Streptococcus pyogenes", "conditions": "100 μM peptide"}, "S. pneumoniae T4 [10]": {"test_system": "S. pneumoniae T4", "assay": "Zebrafish embryo infection model, survival", "type": "in vivo, zebrafish (Danio renio)", "conditions": "500 CFU T4 microinjected into yolk sac, co-administration 1 nM", "method": "The AB strain of zebrafish embryos (Danio renio) was collected within first hours post‐fertilization (hpf) from the zebrafish core facility at Karolinska Institutet, Stockholm, and maintained at 28.5°C in E3 medium (5.0 mM NaCl, 0.17 mM KCl, 0.33 mM CaCl2, 0.33 mM MgSO4). […] Microinjection was done using a glass needle (Harvard apparatus, Quebec, Canada) controlled with a micromanipulator Narishige MN‐153 (Narishige International Limited, London, UK) connected to an Eppendorf FemtoJet express (Eppendorf AG, Hamburg, Germany). The injected volume was previously optimized by injecting of a droplet into mineral oil over a scale bar. The embryos were randomly assigned to the treatment groups and a minimum of 156 embryos/group was used. To determine the actual number of bacteria in the injected volume, one drop was collected into the agar plates, and 1–3 embryos were digested and plated just immediately after injection. The infected embryos were incubated at 30°C for 96 h. The infected embryos were monitored for disease symptoms and survival under a stereomicroscope twice a day up to 4 days post‐injection. Absence of heartbeat and movement was interpreted as a sign of death. All experiments were performed thrice."}, "PLY [11]": {"molecular_target": "T2, PLY", "conditions": "for % cytotoxicity relative to positive control (lysis buffer), LDH: 18 h"}, "SLO": {"molecular_target": "SLO (Streptococcus pyogenes serotype M1, UniProt P0C0I3)", "sequence (P0C0I3 34-571 limits assumed)": "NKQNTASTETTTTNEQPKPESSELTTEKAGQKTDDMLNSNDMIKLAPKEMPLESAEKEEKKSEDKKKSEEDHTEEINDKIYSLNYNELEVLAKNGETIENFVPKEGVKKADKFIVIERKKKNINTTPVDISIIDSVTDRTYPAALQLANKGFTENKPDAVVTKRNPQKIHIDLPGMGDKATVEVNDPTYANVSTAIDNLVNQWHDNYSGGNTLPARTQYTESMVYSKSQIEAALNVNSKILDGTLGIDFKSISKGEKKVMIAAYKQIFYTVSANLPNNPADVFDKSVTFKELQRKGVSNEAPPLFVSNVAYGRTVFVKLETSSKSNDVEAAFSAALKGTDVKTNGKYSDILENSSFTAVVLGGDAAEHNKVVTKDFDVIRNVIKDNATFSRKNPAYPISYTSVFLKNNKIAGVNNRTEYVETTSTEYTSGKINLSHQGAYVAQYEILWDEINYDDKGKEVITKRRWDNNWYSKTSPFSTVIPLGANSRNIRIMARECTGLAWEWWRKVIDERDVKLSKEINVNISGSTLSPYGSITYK"}, "LLO [12]": {"molecular_target": "T1, LLO", "assay": "Hemolysis assay with purified LLO", "conditions": "1 μg/ml toxin", "method": "as §1"}, "[13]": {"assay": "Lung histology (H&E) and clinical symptoms after intranasal administration", "conditions": "mice", "method": "(F) Hematoxylin and eosin (H&E) staining of mouse lungs at 24 h post intranasal"}}, "note": "Where “and” joins values, the source holds several entries; their conditions need not be identical. Equal entries are not always repeated. Where two headings read alike, the source gives them in different places. No end group written: not given here.", "data": [{"sequence": "FTWSDGSPVSYEN [P2]", "values": [{"measurement": "binding to LLO in ELISA", "setting": "LLO [1]", "value": "bound dose‐dependently"}, {"measurement": "inhibition of PLY-induced hemolysis", "setting": "PLY [2]", "value": "up to 50%"}, {"measurement": "inhibition of hemolysis induced by purified PLY", "setting": "PLY [2]", "value": "up to 50%"}, {"measurement": "IC50", "setting": "PLY [2]; read-out: ED50 (median effective dose) vs purified PLY, human, blood, 60 min", "value": 6.6, "unit": "µM"}, {"measurement": "hemolytic activity of pneumococcal strain T4", "setting": "S. pneumoniae strain T4", "value": "significantly reduced"}, {"measurement": "%hemolytic activity relative to positive control (0.1% Triton X)", "setting": "S. pneumoniae strain T4; T4 312500 CFU/ml, experiment 1 of 3", "value": -0.1, "unit": "%"}, {"measurement": "%hemolytic activity relative to positive control (0.1% Triton X)", "setting": "S. pneumoniae strain T4; T4 312500 CFU/ml, experiment 2 of 3", "value": 4, "unit": "%"}, {"measurement": "%hemolytic activity relative to positive control (0.1% Triton X)", "setting": "S. pneumoniae strain T4; T4 312500 CFU/ml, experiment 3 of 3", "value": 4.3, "unit": "%"}, {"measurement": "%hemolytic activity relative to positive control (0.1% Triton X)", "setting": "S. pneumoniae strain T4; T4 625000 CFU/ml, experiment 1 of 3", "value": -0.4, "unit": "%"}, {"measurement": "%hemolytic activity relative to positive control (0.1% Triton X)", "setting": "S. pneumoniae strain T4; T4 625000 CFU/ml, experiment 2 of 3", "value": 4.5, "unit": "%"}, {"measurement": "%hemolytic activity relative to positive control (0.1% Triton X)", "setting": "S. pneumoniae strain T4; T4 625000 CFU/ml, experiment 3 of 3", "value": 4.7, "unit": "%"}, {"measurement": "%hemolytic activity relative to positive control (0.1% Triton X)", "setting": "S. pneumoniae strain T4; T4 12500000 CFU/ml, experiment 1 of 3", "value": -0.7, "unit": "%"}, {"measurement": "%hemolytic activity relative to positive control (0.1% Triton X)", "setting": "S. pneumoniae strain T4; T4 12500000 CFU/ml, experiment 2 of 3", "value": 4.6, "unit": "%"}, {"measurement": "%hemolytic activity relative to positive control (0.1% Triton X)", "setting": "S. pneumoniae strain T4; T4 12500000 CFU/ml, experiment 3 of 3", "value": 4.6, "unit": "%"}, {"measurement": "%hemolytic activity relative to positive control (0.1% Triton X)", "setting": "S. pneumoniae strain T4; T4 25000000 CFU/ml, experiment 1 of 3", "value": 0.2, "unit": "%"}, {"measurement": "%hemolytic activity relative to positive control (0.1% Triton X)", "setting": "S. pneumoniae strain T4; T4 25000000 CFU/ml, experiment 2 of 3", "value": 4.4, "unit": "%"}, {"measurement": "%hemolytic activity relative to positive control (0.1% Triton X)", "setting": "S. pneumoniae strain T4; T4 25000000 CFU/ml, experiment 3 of 3", "value": 20, "unit": "%"}, {"measurement": "%hemolytic activity relative to positive control (0.1% Triton X)", "setting": "S. pneumoniae strain T4; T4 50000000 CFU/ml, experiment 1 of 3", "value": 15.6, "unit": "%"}, {"measurement": "%hemolytic activity relative to positive control (0.1% Triton X)", "setting": "S. pneumoniae strain T4; T4 50000000 CFU/ml, experiment 2 of 3", "value": 19.9, "unit": "%"}, {"measurement": "%hemolytic activity relative to positive control (0.1% Triton X)", "setting": "S. pneumoniae strain T4; T4 50000000 CFU/ml, experiment 3 of 3", "value": 19.6, "unit": "%"}, {"measurement": "%hemolytic activity relative to positive control (0.1% Triton X)", "setting": "S. pneumoniae strain T4; T4 100000000 CFU/ml, experiment 1 of 3", "value": 32, "unit": "%"}, {"measurement": "%hemolytic activity relative to positive control (0.1% Triton X)", "setting": "S. pneumoniae strain T4; T4 100000000 CFU/ml, experiment 2 of 3", "value": 30.8, "unit": "%"}, {"measurement": "%hemolytic activity relative to positive control (0.1% Triton X)", "setting": "S. pneumoniae strain T4; T4 100000000 CFU/ml, experiment 3 of 3", "value": 19.1, "unit": "%"}, {"measurement": "cytolysis by PLY in live imaging", "setting": "PLY [3]", "value": "protection from cytolysis"}, {"measurement": "binding of FITC-labeled peptide to PLY mutant T4Δply", "setting": "[4]; fluorescence microscopy", "value": "not to the PLY‐deficient strain"}, {"measurement": "binding of FITC-labeled peptide to pneumococcal strain T4", "setting": "[4]; fluorescence microscopy", "value": "bound to T4"}, {"measurement": "binding of FITC-labelled peptide to capsular mutant strain T4R", "setting": "[4]; response to reviewers, Figure 4", "value": "binds to T4R"}, {"measurement": "release of IL‐8, TNF‐α and IL‐12 by THP-1 macrophages, PLY", "setting": "PLY [5]", "value": "significantly reduced"}, {"measurement": "loss of GFP expression in 3D lung epithelial model", "setting": "PLY [6]", "value": "significantly lower"}, {"measurement": "LDH release of 3D lung tissue model", "setting": "PLY [7]", "value": "significantly reduced"}, {"measurement": "release of IL‐8 and TNF‐α in lung tissue model", "setting": "PLY [8]", "value": "significantly reduced release"}, {"measurement": "number of invading bacteria in 3D lung epithelial model", "setting": "S. pneumoniae T4 [9]; T4, 100 μM peptide, 2 h", "value": "significantly reduced"}, {"measurement": "Mean Colonies at 100X dil, bacterial invasion of lung epithelium models", "setting": "S. pneumoniae T4 [9]; biological replicate n=1", "value": 13.3}, {"measurement": "% entry bacteria= (bacteria uptaken/Input)*100", "setting": "S. pneumoniae T4 [9]; n=1", "value": 2.25, "unit": "%"}, {"measurement": "% entry bacteria= (bacteria uptaken/Input)*100", "setting": "S. pneumoniae T4 [9]; n=2", "value": 2.59, "unit": "%"}, {"measurement": "Mean Colonies at 100X dil, bacterial invasion of lung epithelium models", "setting": "S. pneumoniae T4 [9]; n=2", "value": 15.3}, {"measurement": "% entry bacteria= (bacteria uptaken/Input)*100", "setting": "S. pneumoniae T4 [9]; n=3", "value": 2.54, "unit": "%"}, {"measurement": "Mean Colonies at 100X dil, bacterial invasion of lung epithelium models", "setting": "S. pneumoniae T4 [9]; n=3", "value": 15}, {"measurement": "co-staining of intracellular S. pyogenes M1T1 with LC3B", "setting": "S. pyogenes type M1T1", "value": "co‐stained with LC3B"}, {"measurement": "survival of infected zebrafish embryos", "setting": "S. pneumoniae T4 [10]", "value": "significantly improved the survival"}, {"measurement": "cell death of macrophages induced by PLY, LDH release", "setting": "PLY [11]", "value": "significantly reduced cell death"}, {"measurement": "% cytotoxicity relative to positive control (lysis buffer), LDH", "setting": "PLY [11]; 100 μM", "value": "50.12% and 52.81% and 49.35%"}, {"measurement": "% cytotoxicity relative to positive control (lysis buffer), LDH", "setting": "PLY [11]", "value": 52.47, "unit": "%"}, {"measurement": "cell death of macrophages induced by SLO, LDH release", "setting": "SLO", "value": "significantly reduced cell death"}, {"measurement": "inhibition of hemolysis induced by purified LLO", "setting": "LLO [12]; at concentrations ranging from 10 to 100 μM", "value": "up to 50%"}, {"measurement": "IC50", "setting": "LLO [12]; read-out: ED50 (median effective dose) vs purified LLO, hemolysis, regression analysis", "value": 22.3, "unit": "µM"}, {"measurement": "toxicity by lung histology analysis (H&E)", "setting": "[13]; 24 h post intranasal administration, 5 µg peptide/mouse", "value": "not toxic"}, {"measurement": "clinical symptoms", "setting": "[13]; 24 h post‐administration", "value": "did not develop any clinical symptoms"}]}]}
